The values below come from patent publication US12351821B2, “Method to prepare sperm” (University of Massachusetts, priority 2016, dated 2025).

Each structure is given as a SMILES string.

For experiment [1], the system named is 2 cell embryos from eggs fertilized by treated sperm. Put plainly: Embryo culture of 2 cell embryos in KSOM to blastocyst stage. Format: cell-based, mouse. Particulars: for percentage of blastocyst in relation to the number of two-cell embryos: CatSper KO sperm, 3.5 days in KSOM. On the procedure:
(§1) Fertilized 2 cell embryos were cultured in KSOM media to blastocyst stage between 3.5 days wt and K. O between 3.8 to 4.1 days. Then they were transferred to 2.5 days post coitum (dpc) pseudo-pregnant CD-1 recipient females using the non-surgical uterine embryo transfer device (65). Pseudo-pregnant CD-1 recipient females were obtained by mating with vasectomized males one day after in vitro fertilization. Only females with a clear plug were chosen as embryo recipients; late morula and early stage blastocysts were chosen to be transferred. Routine genotyping was performed with total DNA from tail biopsy samples from weaning age pups as templates for PCR using genotyping primers for Catsper gene forward [5′-[…]-3′, Seq ID NO: 1] and reverse [S′-[…]-3′; Seq ID NO: 2] and for the reporter gene Lacz forward [5′[…]-3′; Seq ID NO: 3] and reverse [5′-[…]-3′: Seq ID NO: 4] (19).

Experiment [2] deals with mouse sperm (fertilizing capacity, metaphase II-arrested eggs). Put plainly: In vitro fertilization assay with ionophore pre-treated sperm. Format: cell-based. The note with it: for fertilizing capacity: A23187 treatment. On the procedure:
(§2) Sperm from CD-1, C57BL6 (K.O control), CatSper KO 19, SLO3 KO (56), Soluble Adenylyl Cyclase KO (20), and PMC4 KO (35) cauda epididymides were allowed to swim out in 1 mL of standard TYH for 10 minutes. Each swim out tube was split in two halves (500 μl each) and one half was incubated with 20 uM A23187 for 10 minutes. Then, the A23187 was washed by centrifugation as described above (2000 and 1500 RPMS×5 min), the remaining sperm were re-suspended in free A23187 TYH standard medium and capacitated for an addition 1 hour and 20 minutes before adding the sperm to the fertilization drop or for CASA analysis.
Metaphase II-arrested eggs were collected from 6-8 week-old super ovulated CD-1 female mice (Charles River Laboratories). Females were each injected with 5-10 IU equine chorionic gonadotropin and 5-10 IU human chorionic gonadotropin 48 h apart. The cumulus-oocyte complexes (COC's) were placed into a well with 500 μl of media (TYH standard medium) previously equilibrated in an incubator with 5% CO2 at 37° C. Fertilization wells containing 20-30 eggs were inseminated with sperm (final concentration of 2.5×10^6 cells/ml) that had been incubated for 1 h and 20 min (in a medium supporting capacitation with or without calcium ionophore treatment A23187). After 4 h of insemination, eggs were washed and put in a fresh media. The eggs were evaluated 24 h post-insemination. To assess fertilization the three following criteria were considered: 1) the formation of the male and female pronuclei, 2) the emission of the second polar body, and 3) two cells stages.

In experiment [3] the test system is pseudo-pregnant CD-1 recipient females. Put plainly: Non-surgical embryo transfer to pseudo-pregnant females, pups born. The class given is in vivo, mouse. On the procedure: as §1
Experiment [4] has as its system mouse sperm. Put plainly: Sperm motility and hyperactivation by CASA after transient A23187 pre-treatment. Format: cell-based. On the procedure:
as §2
Sperm suspensions (25 μl) were loaded into one pre-warmed chamber slide (depth, 100 μm) (Leja slide, Spectrum Technologies) and placed on a microscope stage at 37° C. Sperm movements were examined using the CEROS computer-assisted semen analysis (CASA) system (Hamilton Thorne Research, Beverly, MA). The default settings include the following: frames acquired: 90; frame rate: 60 Hz; minimum cell size: 4 pixels; static head size: 0.13-2.43; static head intensity: 0.10-1.52; static head elongation: 5-100. Sperm with hyper activated motility, defined as motility with high amplitude thrashing patterns and short distance of travel, were sorted using the criteria established by (64). The data was analyzed using the CASA nova software (64). At least 20 microscopy fields corresponding to a minimum of 200 sperm were analyzed in each experiment.

The test system of experiment [5] is PKA. Put plainly: Western blot with anti-phosphoPKA substrate antibodies in sperm. The class given is cell-based, mouse. On the procedure: Cauda epididymal mouse sperm were placed in 1 ml Hepes-TYH media as stated in figure legend for each experiment. After 10 min incubation at 37° C., epididymides were removed, and the suspension adjusted with non-cap medium to a final concentration of 1-2×10^7 cells/ml. After dilution 1:4 (total 400 μl), sperm were incubated at 37° C. for 1 hour in conditions that support or not capacitation. For capacitation, media was supplemented with 15 mM NaHCO3 and 4 mg/ml BSA. For A23187 treatment, 500 uL of the sperm suspension were taken from the initial swim out and supplemented with 20 μM A23187 for 10 minutes. Then, A23187 was washed off with 2 rounds of centrifugations 1-) 2000 RPMS and the 2-) 1500 RPMS for 5 min each. Sperm were re-suspended in free A23187 media. To evaluate the behavior of A23187 when PKA is inactivated, H89 was used at a concentration of 50 uM for all incubation periods including those used for washing A23187. Sperm proteins were then extracted for western blotting.
Sperm were centrifuged, and washed in 1 ml of phosphate buffer solution (PBS), re-suspended in Laemmli sample buffer (63), and boiled for 4 min. Before Loading, 5% β-mercaptoethanol was added to the protein extracts and boiled for 3 min. Protein extracts equivalent to 1×10^6 sperm were loaded per line and subjected to SDS-PAGE an electro-transfer to PVDF membranes (Bio-Rad) at 250 mA for 60 min on ice. […]
(Immunoblotting shows a protein as a band on a membrane.)

Setting [6] is: H89-treated C57BL6 sperm incubated 10 min in A23187.

As for `CNc1ccc2oc(C[C@H]3O[C@@]4(CC[C@H]3C)O[C@H]([C@H](C)C(=O)c3ccc[nH]3)[C@H](C)C[C@H]4C)nc2c1C(=O)O` [A23187], the “percentage of blastocyst in relation to the number of two-cell embryos” value in experiment [1] (A23187 transient treatment alone) is 20%; in experiment [1] (combined starved plus rescue with A23187 transient treatment), roughly 90%. Further, the “fertilized eggs that continued to the blastocyst stage” value in experiment [1] (eggs fertilized by C57BL6 sperm after A23187 treatment, control about 50%) was “over 80%”. Besides, the sperm fertilization rate entry in experiment [2] (C57BL6 sperm, A23187 pre-treatment) is reported as “significant increase”; in experiment [2] (FerTDR/DR sperm, A23187 transient incubation), “improved”. Also, the “infertile phenotype (two-cell embryos developed)” value in experiment [2] (CatSper1 KO sperm, A23187 transient treatment alone) was “rescued the infertile phenotype”. The “fertilization of metaphase II-arrested eggs in vitro” value in experiment [2] (CatSper KO sperm, A23187-treated) is “competent to fertilize”. Also, in experiment [2] (CatSper KO sperm, starved plus rescue treatment followed by A23187 transient treatment), the fertilization rate is roughly 90%. In experiment [2] (setting [6]), the “fertilizing capacity of H89-treated sperm” value was “sufficient to induce fertilizing capacity”. The fertilizing capacity result in experiment [2] (PMCA4 KO sperm) is listed as “neither their hyperactivated motility nor their fertilizing capacity was rescued”; in experiment [2] (sAC KO and SLO3 KO sperm), “induced fertilizing capacity in sperm from both KO models”. Further, the “outcome of blastocysts non-surgically transferred to pseudo pregnant females” value in experiment [3] (C57BL6 sperm after A23187 treatment) is “became live pups”. For the same compound, the heterozygous pups born entry in experiment [3] (CatSper KO sperm, A23187 alone, 15 blastocysts transferred) was “three”. For the same compound, the “CatSper (+/-) mouse pups born” value in experiment [3] (blastocysts from A23187-treated CatSper KO sperm, two different females) is recorded as “five”. Further, the “percentage of hyperactive sperm” value in experiment [4] (C57BL6 sperm, short pulse of A23187 (20 uM, 10 min), compared with CD1 sperm) is recorded as “increased the percentage of hyperactive C57BL6 sperm to similar levels as those obtained using CD1 sperm”. The hyperactivated motility entry in experiment [4] (CatSper1 KO sperm, 20 μM A23187 10 min then washed) was “a significant number of CatSper KO sperm exhibited hyperactivated motility”; in experiment [4] (PMCA4 KO sperm, A23187 treatment), “neither their hyperactivated motility nor their fertilizing capacity was rescued”. For the same compound, the sperm motility entry in experiment [4] (PMCA4 KO sperm, A23187 addition and removal) was “rendered all the sperm motionless and their motility was not recovered after ionophore removal”; in experiment [4] (sAC KO sperm, A23187 for 10 min) it was “a significant fraction of sAC KO sperm became motile”. Also, in experiment [4] (sAC KO and SLO3 KO sperm, A23187 for 10 min), the hyperactivation entry was “underwent hyperactivation”. Besides, in experiment [5] (setting [6]), the “PKA activity in H89-treated sperm after A23187” value was “PKA remains inactive”.

`O=S(=O)(NCCNCC=Cc1ccc(Br)cc1)c1cccc2cnccc12` [H89, N-[2-[[3-(4-bromophenyl)-2-propen-1-yl]amino]ethyl]5-isoquinolinesulfonamide]: the “ability to fertilize in vitro in the presence of PKA inhibitor” value in experiment [2] (C57BL6 sperm, H89 50 uM) was “unable to fertilize in vitro”. For the same compound, in experiment [5] (C57BL6 sperm, H89 50 uM), the PKA substrate phosphorylation result was “do not show the prototypical increase in PKA substrate phosphorylation”.
